Measurements taken from US11632953B2, “Method for controlling hematophagous or sap-feeding arthropods” (Board of Supervisors of Louisiana State University and …, priority 2016, dated 2023).
“Also recorded” adds a separate entry of the source.

Columns and labels:
[1] = tested on: Aphis gossypii; assay: aphid feeding on treated cotton leaves, electrophenegraph technique; type: in vivo; settings: barium chloride at 300 micromolar
Protocol: FIGS. 14(A) and (B) depict measurements of aphid (Aphis gossypi) feeding on cotton leaves, as measured through the electrophenegraph technique; on control leaves and on leaves treated with the Kir inhibitor barium, respectively.
In aphids, a specific Kir channel blocker (barium chloride at 300 micromolar) was coated onto leaf tissue, and the feeding behavior of the adult aphid was analyzed through the classical electrophenegraph technique.

[2] = tested on: Drosophila melanogaster; assay: whole plant or invertebrate; settings: for mortality in CAFE assay: 200 μM VU041, 700 μM VU937; for reduction of total volume of sucrose solution ingested: 100 μM fluphenazine, 200 μM VU041
Protocol: A capillary feeding assay (CAFE) was used to quantify the volume of sucrose solution consumed over a period of time; it was performed essentially as described in W. W. Ja, G. B. Carvalho, E. M. Mak, N. N. de la Rosa, A. Y. Fang, J. C. Liong, T. Brummel, S. Benzer, Prandiology of Drosophila and the CAFE assay. Proceedings of the National Academy of Sciences of the United States of America 104, 8253-8256 (2007); published online EpubMay 15 (10.1073/pnas.0702726104). […] One adult fly was placed into a 2 mL glass vial with a screw lid that was pierced with a glass microcapillary tube having a truncated 200-0 pipette tip. The microcapillary tubes contained 5% (wt/vol) sucrose solution with a 5 μl mineral oil overlay to minimize evaporation. […] Concentrations of 100 μM dopamine and 100 μM fluphenazine were used to determine the influence of those agents on fly feeding. […] All dead flies were excluded from all time points of the study regardless of the time of death. Mean (n>25) values are shown in all figure panels, depicting total consumption.
Times spent feeding in Kir1 and GFP genetic knockdown studies were compared to control values for each day using one-way ANOVA with a Dunns multiple comparisons post-test. Statistical significance for all studies was P<0.05.

[3] = biological target: AnKir1 (Anopheles gambiae, UniProt A0A075M2J8); assay: whole-cell patch clamp electrophysiology; type: cell-based
AnKir1, sequence (A0A075M2J8 1-555): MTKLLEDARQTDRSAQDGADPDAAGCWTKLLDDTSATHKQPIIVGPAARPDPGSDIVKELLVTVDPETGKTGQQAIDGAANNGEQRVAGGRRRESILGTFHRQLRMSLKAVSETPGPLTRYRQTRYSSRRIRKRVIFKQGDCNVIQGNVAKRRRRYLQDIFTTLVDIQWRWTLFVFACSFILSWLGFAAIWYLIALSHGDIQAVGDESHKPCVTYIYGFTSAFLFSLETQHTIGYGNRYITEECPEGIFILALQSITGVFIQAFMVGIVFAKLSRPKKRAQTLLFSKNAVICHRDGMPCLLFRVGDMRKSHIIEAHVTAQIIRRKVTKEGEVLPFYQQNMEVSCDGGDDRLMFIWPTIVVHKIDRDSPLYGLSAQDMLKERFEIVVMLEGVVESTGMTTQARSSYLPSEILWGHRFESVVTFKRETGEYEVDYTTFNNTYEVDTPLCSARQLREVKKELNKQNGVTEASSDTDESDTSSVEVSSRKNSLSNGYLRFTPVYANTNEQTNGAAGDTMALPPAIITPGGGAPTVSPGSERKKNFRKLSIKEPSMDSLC
Protocol: Patch electrodes were pulled from silanized 1.5 mm outer diameter borosilicate microhematocrit tubes using a P-1000 Flaming/Brown micropipette puller (Sutter Instrument, Novato Calif., USA). Electrode resistance ranged from 2-4 MΩ. Whole-cell currents were recorded under voltage-clamp conditions using an Axopatch 200B amplifier (Molecular Devices, Sunnyvale, Calif.). Electrical connections to the amplifier used Ag/AgCl wires and 3 M KCl/agar bridges. Electrophysiological data were collected at 5 kHz and filtered at 1 kHz. Data acquisition and analysis were performed using pClamp 9.2 software (Axon Instruments).
Transiently transfected HEK-293T cells expressing AnKir1 were voltage-clamped in the whole-cell configuration of the patch clamp technique. The extracellular bath solution contained (in mM): 135 NaCl, 5 KCl, 2 CaCl2), 1 MgCl2, 5 glucose, 10 HEPES free acid, pH 7.4, 290 mOsm/kg H2O. The pipette solution contained (in mM): 135 KCl, 2 MgCl2, 1 EGTA, 10 HEPES free acid, 2 Na2ATP (Roche, Indianapolis, Ind.), pH 7.3, 275 mOsm. Cells were voltage clamped at −75 mV, stepped to −120 mV for 200 msec, and then ramped to 120 mV at a rate of 2.4 mV/msec. Concentration-response curves (CRCs) were constructed by measuring the effects of increasing doses of inhibitors on AnKir1 currents at −120 mV. All recordings were made at room temperature (20-23° C.).

[4] = tested on: An. gambiae; assay: topical toxicity bioassay in adult female An. gambiae; type: in vivo, Anopheles gambiae; settings: for ED50 (95% confidence limits), Akron Strain / ED50 (95% confidence limits), G3 Strain: topical, synergists 500 ng/insect four hours prior
Protocol: Topical toxicity bioassays were performed on non-blood-fed adult female mosquitoes. The mosquitoes were chilled on ice for 1-3 minutes, during which 200 nL of compound (dissolved in 95% ethanol) was applied onto the abdomen of each insect with a handheld Hamilton® micro-applicator. […] […] The three resulting ED50 values were averaged. An ethanol-only treatment was included in each experiment as a negative control. Treated mosquitoes were transferred to small cages with access to 10% sucrose and held under rearing conditions for 24 h. Mortality was recorded at 24 h.

[5] = tested on: Ae. aegypti; assay: topical toxicity bioassay in adult female Ae. aegypti; type: in vivo, Aedes aegypti; settings: 24 h
Protocol: Topical toxicity bioassays in adult female Ae. aegypti (LVP and PR strains) were performed. […] A solvent-only treatment was included in each experiment as a negative control. Treated mosquitoes were transferred to small cages with access to 10% sucrose and held under rearing conditions for 24 h. The efficacy of a dose was measured as the percentage of treated mosquitoes in a cage that were flightless or dead at 24 h. Four to eight replicates of 10 mosquitoes were performed per dose. The ED50 values were determined using a non-linear curve fit analysis (log [inhibitor] vs. response variable-slope) in Prism 6 (Graphpad Software).
Six replicate experiments of 10 mosquitoes each were performed.

[6] = tested on: An. gambiae; assay: blood meal processing, abdominal diameter; type: in vivo, Anopheles gambiae; settings: topical, ED30 dose of VU041 after engorgement
Protocol: Blood meal processing studies were performed with similar methods, with the exception that An. gambiae were blood-fed on anesthetized mice. All methods were carried out in accordance with Vanderbilt Institutional Animal Care and Use Committee approval. Upon completion of blood feeding, female mosquitoes with fully distended abdomens were selected, and 200 nL of compound at a non-lethal concentration (1 μg/mg) was applied directly to the abdomen. Any mosquito that died during the 24 h observation period was excluded from the analysis. Images of the abdomens were acquired at 0, 2, 5, 8, and 24 h through the dorsal cuticle; abdomens were measured at the widest point. Images were captured using bright-field illumination on a Nikon 90i light microscope (Nikon Corp., Tokyo, Japan) connected to a Photometrics CoolSNAP HQ2 high-sensitivity monochrome CCD camera (Roper Scientific, Ottobrunn, Germany). Digital images were acquired using Nikon Advanced Research NIS-Elements software. Mean abdominal diameters were compared using one-way ANOVA with a Tukey's post-hoc analysis (Prism 6, Graphpad Software, La Jolla, Calif.).

[7] = whole-cell patch clamp, HEK-293T cells

O=C(Cn1nc(C(F)(F)F)c2c1CCCC2)NC1CCC1 [VU937]
feeding phases (egestion, salivation, ingestion) [1]: fed normally; also recorded: did not affect feeding | mortality in CAFE assay [2]: less than 10% | activity less than VU041 ([3]; patch clamp): 60 fold | IC50 ([3]; whole-cell patch clamp): 29.7 µM | IC50 [3, 7]: 29.7 µM | topical toxicity ([4]; adult females, 24 h): not toxic | ED50 (95% confidence limits), Akron Strain ([4]; 24 h, Akron strain): >10 µg/mg | ED50 (95% confidence limits), G3 Strain ([4]; 24 h, G3 strain): >10 µg/mg | topical toxicity ([5]; adult females): not toxic | abdominal diameter over 24 h after blood feeding [6]: decreased significantly over 24 h

O=C(Cn1nc(C(F)(F)F)c2c1CCCC2)N1CCCc2ccccc21 [VU041, 1-(3,4-dihydroquinolin-1(2H)-yl)-2-(3-(trifluoromethyl)-4,5,6,7-tetrahydro-1H-indazol-1-yl)ethan-1-one]
feeding phases (egestion, salivation, ingestion) [1]: No salivation was observed; also recorded: essentially completely inhibited egestion, salivation, and ingestion | mortality in CAFE assay [2]: approximately 30% | reduction of total volume of sucrose solution ingested ([2]; 1 day PE): 2.6 fold | reduction of total volume of sucrose solution ingested ([2]; 2 days PE): 2.7 fold | reduction of total volume of sucrose solution ingested ([2]; 3 days PE): 2.9 fold | reduction of total volume of sucrose solution ingested ([2]; 4 days PE): 3.2 fold | EC50 ([2]; Drosophila melanogaster, 96 h, read-out: EC50 of reduction of sucrose consumption): 68 µM | maximal reduction of volume of sucrose consumption ([2]; concentration-dependent): up to 3.2 fold | Hill coefficient value ([3]; whole-cell patch clamp): 1.3 | IC50 [3, 7]: 0.496 µM | enhancement of toxicity by inhibition of CYP450s in the AKRON strain over the G3 strain ([4]; Akron strain): 3 fold | enhancement of efficacy by PBO pretreatment ([4]; G3 strain): ~3 fold | enhancement of toxicity by DEF pre-treatment ([4]; G3 strain): did not enhance toxicity | ED50 (95% confidence limits), Akron Strain ([4]; 24 h, Akron strain): 2.8 (2.1-4.1) A μg/mg | ED50 (95% confidence limits), G3 Strain ([4]; 24 h, G3 strain): 1.8 (0.9-3.1) A μg/mg | approximate ED50 ([5]; topical, LVP strain): ~3.24 μg/mg mosquito | abdominal diameter over 24 h after blood feeding [6]: did not thereafter change much
